We go through twelve compounds from PMC7698210 (International Journal of Molecular Sciences, 2020).

SMILES strings stand for the structures. Read-outs that look alike come from different tables or passages of the source.

What all share (experiment): cell-based
For experiment [1], the target named is T1, H2R (Homo sapiens, UniProt P25021).
T1 construct: gene HRH2; full receptor, C-terminal NlucC tag (11 aa split-NanoLuc fragment); co-expressed with NlucN-mGs (mini-Gs393) in HEK293T
Details: species or system HEK293T. To be noted: HEK-293T; read-out: Mini G Protein Recruitment / Emax [%].

The target in experiment [2] is T1, H2R. More on the design: species or system HEK293T. The following applies: HEK-293T; read-out: Mini G Protein Recruitment / Emax [%]. The source holds these as a separate data set.
For experiment [3], the target named is T2, H1R (Homo sapiens, UniProt P35367). More on the design: gene HRH1; full receptor, C-terminal NlucC tag (11 aa split-NanoLuc fragment); co-expressed with NlucN-mGsq (mini-Gs/q71) in HEK293T; species or system HEK293T. To be noted: HEK-293T, read-out: Mini G Protein Recruitment / Emax [%].
Experiment [4] addresses T2, H1R. Details: gene HRH1. The following applies: HEK-293T, read-out: Mini G Protein Recruitment / Emax [%].

T1 sequence (P25021 whole entry, the tested form may be a part): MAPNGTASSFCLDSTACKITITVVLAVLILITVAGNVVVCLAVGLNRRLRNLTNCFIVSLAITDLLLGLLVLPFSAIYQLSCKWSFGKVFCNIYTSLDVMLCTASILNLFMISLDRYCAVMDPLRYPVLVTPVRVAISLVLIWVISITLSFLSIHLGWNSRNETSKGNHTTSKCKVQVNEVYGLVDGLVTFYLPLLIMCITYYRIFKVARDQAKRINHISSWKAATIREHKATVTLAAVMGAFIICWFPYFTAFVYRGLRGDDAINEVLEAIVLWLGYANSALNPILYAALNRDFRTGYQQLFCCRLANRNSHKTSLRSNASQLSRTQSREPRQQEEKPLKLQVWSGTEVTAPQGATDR
T2 sequence (P35367 whole entry, the tested form may be a part): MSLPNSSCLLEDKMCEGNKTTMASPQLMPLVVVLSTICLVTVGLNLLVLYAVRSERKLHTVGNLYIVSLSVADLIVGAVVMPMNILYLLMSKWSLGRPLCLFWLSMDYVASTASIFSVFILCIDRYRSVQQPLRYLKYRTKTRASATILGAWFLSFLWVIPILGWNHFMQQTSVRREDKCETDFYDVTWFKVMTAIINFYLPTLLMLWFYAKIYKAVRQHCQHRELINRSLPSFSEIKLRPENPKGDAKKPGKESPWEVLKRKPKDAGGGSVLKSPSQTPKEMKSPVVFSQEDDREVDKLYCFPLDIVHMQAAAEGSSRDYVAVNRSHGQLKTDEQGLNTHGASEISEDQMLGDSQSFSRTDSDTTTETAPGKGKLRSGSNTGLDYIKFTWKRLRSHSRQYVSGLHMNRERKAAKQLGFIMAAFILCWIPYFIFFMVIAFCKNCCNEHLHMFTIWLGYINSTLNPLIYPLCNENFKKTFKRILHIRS

Regarding `CN(C)CCCSC(=N)N` [dim, dimaprit], in experiment [1], the Emax stood at 94 ± 2.6%.

On to `CN=C(NC#N)NCCSCc1nc[nH]c1C` [cim, cimetidine], for which the Emax in experiment [2] is -8 ± 0.8%.

In the case of `NCCc1c[nH]c(CCC(c2ccccc2)c2ccccc2)n1` [histapro, histaprodifen], the Emax in experiment [3] was found to be 33 ± 2%.

Consider `NCCc1c[nH]cn1` [his, histamine], for which the Emax in experiment [2] and in experiment [4] was 100% each time. Consider `CNC(=C[N+](=O)[O-])NCCSCc1ccc(CN(C)C)o1` [ran, ranitidine], for which the Emax in experiment [2] was -8 ± 0.7%.

Consider `Cc1[nH]cnc1CSCCNC(=N)NCCCc1c[nH]cn1` [impro, impromidine], for which, in experiment [1], the Emax stood at 90 ± 1.5%. On to `CCC(=O)NC(N)=NCCCc1cnc[nH]1` [PI294, UR-PI294], for which the Emax in experiment [3] was 29 ± 1.4%; in experiment [1] it was 95 ± 1.1%. For `Cc1nc(N)sc1CCN` [amt, amthamine], in experiment [1], the Emax is 105 ± 2.8%.

With `c1ccc(C(CCc2nc(CCNCCc3c[nH]cn3)c[nH]2)c2ccccc2)cc1` [suprahis, suprahistaprodifen], the Emax in experiment [3] stood at 49 ± 3.7%. Turning to `NC(N)=Nc1nc(CSCCC(N)=NS(N)(=O)=O)cs1` [fam, famotidine], the Emax in experiment [2] was -9 ± 0.7%. For `CNCCc1cnc[nH]1` [Namh, N^α-methylhistamine], the Emax stood at 99 ± 2% in experiment [3] and 93 ± 1.7% in experiment [1]. Consider `Cc1[nH]cnc1CCN` [4mhis, 4-methylhistamine], for which the Emax in experiment [3] was found to be 44 ± 2.4%; in experiment [1] it was 93 ± 2.2%.
